Source: patent publication US12540141B2, “Spiropyrrolidine derived antiviral agents” (priority 2020, dated 2026)

Molecular target: SARS-CoV-2 3CL-protease (Severe acute respiratory syndrome coronavirus 2, UniProt P0DTD1)
Test: SARS-CoV-2 3C-Like (3CL) Protease Fluorescence Assay (FRET)
Assay type: biochemical
Conditions: SARS-CoV-2 3CL-protease 10 nM, 30 min preincubation at RT, substrate 40 μM

| Compound | IC50 |
| --- | --- |
| CN(C(=O)c1cc2cccnc2[nH]1)[C@@H](CC1CC1)C(=O)N1C[C@]2(C[C@H]1C#N)C(=O)Nc1ccc(Cl)cc12 [Example 459] | < 100 nM |
| Cc1ccnc2[nH]c(C(=O)N(C)[C@@H](CC3CC3)C(=O)N3C[C@]4(C[C@H]3C#N)C(=O)Nc3ccc(Cl)cc34)cc12 [Example 460] | < 100 nM |
| Cc1cnc2[nH]c(C(=O)N(C)[C@@H](CC3CC3)C(=O)N3C[C@]4(C[C@H]3C#N)C(=O)Nc3ccc(Cl)cc34)cc2c1 [Example 461] | < 100 nM |
| Cc1ccc2cc(C(=O)N(C)[C@@H](CC3CC3)C(=O)N3C[C@]4(C[C@H]3C#N)C(=O)Nc3ccc(Cl)cc34)[nH]c2n1 [Example 462] | < 100 nM |
| CN(C(=O)c1nc2cccnc2[nH]1)[C@@H](CC1CC1)C(=O)N1C[C@]2(C[C@H]1C#N)C(=O)Nc1ccc(Cl)cc12 [Example 463] | < 100 nM |
| CC(C)C[C@@H](C(=O)N1C[C@]2(C[C@H]1C#N)C(=O)Nc1ccccc12)N(C)C(=O)c1cc2cccnc2[nH]1 [Example 464] | < 100 nM |
| Cc1ccc2cc(C(=O)N(C)[C@@H](CC(C)C)C(=O)N3C[C@]4(C[C@H]3C#N)C(=O)Nc3ccccc34)[nH]c2n1 [Example 465] | < 100 nM |
| CN(C(=O)c1cc2cccnc2[nH]1)[C@@H](CC(C)(C)F)C(=O)N1C[C@]2(C[C@H]1C#N)C(=O)Nc1ccccc12 [Example 466] | < 100 nM |
| Cc1ccc2cc(C(=O)N(C)[C@@H](CC(C)(C)F)C(=O)N3C[C@]4(C[C@H]3C#N)C(=O)Nc3ccccc34)[nH]c2n1 [Example 467] | < 100 nM |
| CC(C)C[C@@H](C(=O)N1C[C@]2(C[C@H]1C#N)C(=O)Nc1ccc(Cl)cc12)N(C)C(=O)c1cc2cccnc2[nH]1 [Example 468] | < 100 nM |
| Cc1ccc2cc(C(=O)N(C)[C@@H](CC(C)C)C(=O)N3C[C@]4(C[C@H]3C#N)C(=O)Nc3ccc(Cl)cc34)[nH]c2n1 [Example 469] | < 100 nM |
| CN(C(=O)c1cc2cccnc2[nH]1)[C@@H](CC(C)(C)F)C(=O)N1C[C@]2(C[C@H]1C#N)C(=O)Nc1ccc(Cl)cc12 [Example 470] | < 100 nM |
| Cc1ccc2cc(C(=O)N(C)[C@@H](CC(C)(C)F)C(=O)N3C[C@]4(C[C@H]3C#N)C(=O)Nc3ccc(Cl)cc34)[nH]c2n1 [Example 471] | < 100 nM |
| [2H]C([2H])([2H])N(C(=O)c1cc2c(F)cc(F)cc2[nH]1)[C@@H](CC(C)(C)F)C(=O)N1C[C@]2(C[C@H]1C#N)C(=O)Nc1cc(C(F)(F)F)ccc12 [Example 472, N—((S)-1-((3R,5′S)-5′-cyano-2-oxo-6-(trifluoromethyl)spiro[indoline-3,3′-pyrrolidin]-1′-yl)-4-fluoro-4-methyl-1-oxopentan-2-yl)-4,6-difluoro-N-(methyl-d3)-1H-indole-2-carboxamide] | < 100 nM |
| CN(C(=O)C1(c2ccncc2)CC1)[C@@H](CC(C)(C)F)C(=O)N1C[C@]2(C[C@H]1C#N)C(=O)Nc1ccc(Cl)cc12 [Example 473, N—((S)-1-((3R,5′S)-5-chloro-5′-cyano-2-oxospiro[indoline-3,3′-pyrrolidin]-1′-yl)-4-fluoro-4-methyl-1-oxopentan-2-yl)-N-methyl-1-(pyridin-4-yl)cyclopropane-1-carboxamide] | < 100 nM |
| [2H]C([2H])([2H])N(C(=O)Cc1ccncc1)[C@@H](CC(C)(C)F)C(=O)N1C[C@]2(C[C@H]1C#N)C(=O)Nc1ccc(Cl)cc12 [Example 474] | < 100 nM |
| [2H]C([2H])([2H])N(C(=O)C1(c2ccncc2)CC1)[C@@H](CC(C)(C)F)C(=O)N1C[C@]2(C[C@H]1C#N)C(=O)Nc1ccc(Cl)cc12 [Example 475] | < 100 nM |
| CN(C(=O)Cc1cccnc1)[C@@H](CC(C)(C)F)C(=O)N1C[C@]2(C[C@H]1C#N)C(=O)Nc1ccc(Cl)cc12 [Example 476] | < 100 nM |
| CN(C(=O)Cc1ccncc1)[C@@H](CC(C)(C)F)C(=O)N1C[C@]2(C[C@H]1C#N)C(=O)Nc1ccc(Cl)cc12 [Example 477] | < 100 nM |
| CN(C(=O)C1(c2ccccn2)CC1)[C@@H](CC(C)(C)F)C(=O)N1C[C@]2(C[C@H]1C#N)C(=O)Nc1ccc(Cl)cc12 [Example 478] | < 100 nM |
| CN(C(=O)C1(c2cccnc2)CC1)[C@@H](CC(C)(C)F)C(=O)N1C[C@]2(C[C@H]1C#N)C(=O)Nc1ccc(Cl)cc12 [Example 479] | < 100 nM |
| CN(C(=O)C(F)(F)c1ccncc1)[C@@H](CC(C)(C)F)C(=O)N1C[C@]2(C[C@H]1C#N)C(=O)Nc1ccc(Cl)cc12 [Example 480] | < 100 nM |

| Compound | IC50 |
| --- | --- |
| CN(C(=O)C(F)(F)c1ccccn1)[C@@H](CC(C)(C)F)C(=O)N1C[C@]2(C[C@H]1C#N)C(=O)Nc1ccc(Cl)cc12 [Example 481] | < 100 nM |
| CN(C(=O)C(F)(F)c1cccnc1)[C@@H](CC(C)(C)F)C(=O)N1C[C@]2(C[C@H]1C#N)C(=O)Nc1ccc(Cl)cc12 [Example 482] | < 100 nM |
| CN(C(=O)Cc1ccccn1)[C@@H](CC(C)(C)F)C(=O)N1C[C@]2(C[C@H]1C#N)C(=O)Nc1ccc(Cl)cc12 [Example 483] | < 100 nM |
| CN(C(=O)Cc1cnccn1)[C@@H](CC(C)(C)F)C(=O)N1C[C@]2(C[C@H]1C#N)C(=O)Nc1ccc(Cl)cc12 [Example 484] | < 100 nM |
| CN(C(=O)Cc1cccc(C(F)(F)F)n1)[C@@H](CC(C)(C)F)C(=O)N1C[C@]2(C[C@H]1C#N)C(=O)Nc1ccc(Cl)cc12 [Example 485] | 100 to 1000 nM |
| Cc1cccc(C(F)(F)C(=O)N(C)[C@@H](CC(C)(C)F)C(=O)N2C[C@]3(C[C@H]2C#N)C(=O)Nc2ccc(Cl)cc23)n1 [Example 486] | < 100 nM |
| Cc1cccc(CC(=O)N(C)[C@@H](CC(C)(C)F)C(=O)N2C[C@]3(C[C@H]2C#N)C(=O)Nc2ccc(Cl)cc23)n1 [Example 487] | < 100 nM |
| CC(C)C[C@@H](C(=O)N1C[C@]2(C[C@H]1C#N)C(=O)Nc1ccccc12)N(C)C(=O)c1cc2cc(C(F)(F)F)cnc2[nH]1 [Example 488] | < 100 nM |
| CC(C)C[C@@H](C(=O)N1C[C@]2(C[C@H]1C#N)C(=O)Nc1ccccc12)N(C)C(=O)c1cc2cncnc2[nH]1 [Example 489] | < 100 nM |
| CC(C)C[C@@H](C(=O)N1C[C@]2(C[C@H]1C#N)C(=O)Nc1ccccc12)N(C)C(=O)c1cc2nccnc2[nH]1 [Example 490] | < 100 nM |
| CC(C)C[C@@H](C(=O)N1C[C@]2(C[C@H]1C#N)C(=O)Nc1ccccc12)N(C)C(=O)c1cc2ccc(C(C)C)nc2[nH]1 [Example 491] | < 100 nM |
| N#C[C@@H]1C[C@@]2(CN1C(=O)[C@H](CC1CC1)NC(=O)OCc1c(F)cccc1F)C(=O)Nc1ccc(Cl)cc12 [Example 492, 2,6-difluorobenzyl ((S)-1-((3R,5′S)-5-chloro-5′-cyano-2-oxospiro[indoline-3,3′-pyrrolidin]-1′-yl)-3-cyclopropyl-1-oxopropan-2-yl)carbamate] | < 100 nM |
| N#C[C@@H]1C[C@@]2(CN1C(=O)[C@H](CC1CC1)NC(=O)OCc1ccc(F)cc1F)C(=O)Nc1ccc(Cl)cc12 [Example 493] | < 100 nM |
| C[C@@H](OC(=O)N[C@@H](CC(C)(C)C)C(=O)N1C[C@]2(C[C@H]1C#N)C(=O)Nc1ccc(Cl)cc12)c1ccc(F)cc1 [Example 495] | < 100 nM |
| CC(C)(C)C[C@H](NC(=O)OC(C)(C)c1ccc(F)cc1)C(=O)N1C[C@]2(C[C@H]1C#N)C(=O)Nc1ccc(Cl)cc12 [Example 496] | > 1000 nM |
| CC(C)C[C@@H](C(=O)N1C[C@]2(C[C@H]1C(=O)O)C(=O)Nc1ccc(Cl)cc12)N(C)C(=O)c1cc2c(F)cc(F)cc2[nH]1 [Example 497, (3R,5′S)-5-chloro-1′-(N-(4,6-difluoro-1H-indole-2-carbonyl)-N-methyl-L-leucyl)-2-oxospiro[indoline-3,3′-pyrrolidine]-5′-carboxylic acid] | > 1000 nM |
| C=C(C)c1ccc2c(c1)[C@@]1(C[C@@H](C#N)N(C(=O)[C@H](CC(C)C)N(C)C(=O)c3cc4c(F)cc(F)cc4[nH]3)C1)C(=O)N2 [Example 498, N—((S)-1-((3R,5′S)-5′-cyano-2-oxo-5-(prop-1-en-2-yl)spiro[indoline-3,3′-pyrrolidin]-1′-yl)-4-methyl-1-oxopentan-2-yl)-4,6-difluoro-N-methyl-1H-indole-2-carboxamide] | < 100 nM |
| CC(=O)c1ccc2c(c1)[C@@]1(C[C@@H](C#N)N(C(=O)[C@H](CC(C)C)N(C)C(=O)c3cc4c(F)cc(F)cc4[nH]3)C1)C(=O)N2 [Example 499] | < 100 nM |
| CC(C)C[C@@H](C(=O)N1C[C@]2(C[C@H]1C#N)C(=O)Nc1ccc(S(C)(=O)=O)cc12)N(C)C(=O)c1cc2c(F)cc(F)cc2[nH]1 [Example 500, N—((S)-1-((3R,5′S)-5′-cyano-5-(methylsulfonyl)-2-oxospiro[indoline-3,3′-pyrrolidin]-1′-yl)-4-methyl-1-oxopentan-2-yl)-4,6-difluoro-N-methyl-1H-indole-2-carboxamide] | < 100 nM |
| COC(=O)c1ccc2c(c1)[C@@]1(C[C@@H](C#N)N(C(=O)[C@H](CC(C)C)N(C)C(=O)c3cc4c(F)cc(F)cc4[nH]3)C1)C(=O)N2 [Example 501, methyl (3R,5′S)-5′-cyano-1′-(N-(4,6-difluoro-1H-indole-2-carbonyl)-N-methyl-L-leucyl)-2-oxospiro[indoline-3,3′-pyrrolidine]-5-carboxylate] | < 100 nM |
| CC(C)C[C@@H](C(=O)N1C[C@]2(C[C@H]1C#N)C(=O)Nc1ccc(C(=O)N3CCOCC3)cc12)N(C)C(=O)c1cc2c(F)cc(F)cc2[nH]1 [Example 502, N—((S)-1-((3R,5′S)-5′-cyano-5-(morpholine-4-carbonyl)-2-oxospiro[indoline-3,3′-pyrrolidin]-1′-yl)-4-methyl-1-oxopentan-2-yl)-4,6-difluoro-N-methyl-1H-indole-2-carboxamide] | < 100 nM |
| CC(C)C[C@@H](C(=O)N1C[C@]2(C[C@H]1C#N)C(=O)Nc1ccc(N=[N+]=[N-])cc12)N(C)C(=O)c1cc2c(F)cc(F)cc2[nH]1 [Example 503, N—((S)-1-((3R,5′S)-5-azido-5′-cyano-2-oxospiro[indoline-3,3′-pyrrolidin]-1′-yl)-4-methyl-1-oxopentan-2-yl)-4,6-difluoro-N-methyl-1H-indole-2-carboxamide] | < 100 nM |
